Calls of active or inactive are those of the source.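 The calls were made as follows: active = compounds lowering cell ATP signal with a fitted AC50 at or below twice their top tested dose; inconclusive = flat curve between 30% and 70% loss, or poor fit; inactive = the rest.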

Tested on in one test: not listed separately
The experiment in a line: A549 cell cytotoxicity, dose response, cytotoxicity control, plate reader, dry powder, set 11 (AID 743413). Particulars: A549 viability, CellTiter-Glo ATP luminescence, 72 h; at 12 µM (top of the series). On the technique in general: Cellular ATP, detected with luciferase, serves as a proxy for viable cell number.
Consider `COc1cc(CNCCCN2CCOCC2)ccc1OCC(=O)Nc1cccc(C(F)(F)F)c1`, for which the activity change, negative = cytotoxicity is 7.4% (inactive).

For the compound `COCCN(Cc1ccco1)C(=O)CSc1c2c(nc3cc(Cl)ccc13)CCCC2`, the activity change, negative = cytotoxicity was -3.68% (inactive).

The test is the same for the next values; noted with them: A549 viability, CellTiter-Glo ATP luminescence, 72 h; at 26 µM (top of the series).
As for `Cc1ccc(NC(=O)COc2ccccc2C(=O)NCCN(C)C)cc1`, the activity change, negative = cytotoxicity is -4.77% (inactive).

Take `CCN(CC)C(=O)CSc1c2c(nc3ccc(Cl)cc13)CCCC2`: the activity change, negative = cytotoxicity was -10.9% (inactive).

With `CN(CCNC(=O)CSc1c2c(nc3ccc(Cl)cc13)CCCC2)Cc1ccccc1`, the activity change, negative = cytotoxicity was -8.03% (inactive).

As to `CCOC(=O)N1CCC(NC(=O)CSc2c3c(nc4ccc(Cl)cc24)CCCC3)CC1`, the activity change, negative = cytotoxicity was -13.1% (inactive).

For `O=C(CSc1c2c(nc3ccc(Cl)cc13)CCCC2)NCC1(c2ccccc2)CCCC1`, the activity change, negative = cytotoxicity is -1.8% (inactive).

Turning to `COc1cc(C(=O)NCCCN(C)C)ccc1OCC(=O)Nc1cccc(C(F)(F)F)c1`, the activity change, negative = cytotoxicity is -6.69% (inactive).

Turning to `COC(=O)CCCN(C)C(=O)c1ccc(OCC(=O)Nc2cccc(OC)c2)cc1`, the activity change, negative = cytotoxicity is -0.651% (inactive).

For the compound `COc1ccc(OCCNC(=O)c2ccccc2OCC(=O)Nc2ccc(NC(C)=O)cc2)cc1`, the activity change, negative = cytotoxicity was -14.7% (inactive).

Consider `O=C(COc1ccc(C(=O)N2CCN(C(=O)C3CC3)CC2)cc1)Nc1cccc(C(F)(F)F)c1`, for which the activity change, negative = cytotoxicity was -1.09% (inactive).

On to `O=C(CSc1cccc2cccnc12)NCc1ccco1`, for which the activity change, negative = cytotoxicity is -1.12% (inactive).

As to `Cn1cc(SCC(=O)NCc2ccco2)c2ccccc21`, the activity change, negative = cytotoxicity was -0.441% (inactive).

In the case of `O=C(CSc1c2c(nc3ccc(Cl)cc13)CCCC2)N1CCNC1=O`, the activity change, negative = cytotoxicity is -13.8% (inactive).

Regarding `CC(Sc1c2c(nc3ccc(Cl)cc13)CCCC2)C(=O)NCc1ccco1` (stereo unspecified), the activity change, negative = cytotoxicity is -8.08% (inactive).

With `Cc1ccc2nc(Cl)cc(SCC(=O)NCc3ccco3)c2c1`, the activity change, negative = cytotoxicity is -7.2% (inactive).

In the case of `O=C(COc1ccc(C(=O)NC2CCCCC2)cc1)Nc1cccc(C(F)(F)F)c1`, the activity change, negative = cytotoxicity was -0.017% (inactive).

With `CN(C(=O)COc1ccc(Cl)cc1C(N)=O)c1ccccc1`, the activity change, negative = cytotoxicity is 2.07% (inactive).

On to `Cn1c(=O)cc(SCC(=O)NCc2ccco2)c2ccccc21`, for which the activity change, negative = cytotoxicity was 5.32% (inactive).

With `CCOC(=O)C1CCN(C(=O)c2ccc(OCC(=O)Nc3ccc(OCC)cc3)c(OC)c2)CC1`, the activity change, negative = cytotoxicity is 5.86% (inactive).

As for `CCOC(=O)C1CCN(C(=O)c2ccc(OCC(=O)N3CCOCC3)c(OC)c2)CC1`, the activity change, negative = cytotoxicity was -3.29% (inactive).

On to `O=C(COc1ccccc1C(=O)NCCOc1ccc(Cl)cc1)Nc1cccc(Cl)c1`, for which the activity change, negative = cytotoxicity is -15.3% (inactive).

`O=C(CSc1c2c(nc3ccc(Cl)cc13)CCCC2)NC1CCCC1`: the activity change, negative = cytotoxicity is -25.2% (inactive).

In the case of `CN(CCOc1ccccc1)C(=O)c1ccc(OCC(=O)Nc2cccc(C(F)(F)F)c2)cc1`, the activity change, negative = cytotoxicity was 0.912% (inactive).

With `CC1(C)CC(NC(=O)c2ccc(OCC(=O)Nc3cccc(C(F)(F)F)c3)cc2)CC(C)(C)N1`, the activity change, negative = cytotoxicity is -14.3% (inactive).

Take `O=C(O)CSc1c2c(nc3cc(C(=O)NCc4cccs4)ccc13)CCCC2`: the activity change, negative = cytotoxicity is -2.24% (inactive).

`O=C(CSc1ccc2ccccc2n1)NCc1ccco1`: the activity change, negative = cytotoxicity is -6.75% (inactive).

Regarding `CCOc1ccc(NC(=O)COc2ccc(C(=O)N3CCC(C(N)=O)CC3)cc2OC)cc1`, the activity change, negative = cytotoxicity was -3.38% (inactive).

As for `CN(C(=O)COc1ccccc1C(N)=O)c1ccccc1`, the activity change, negative = cytotoxicity is -1.13% (inactive).

`COc1ccc(N(Cc2cccs2)C(=O)COc2ccccc2C(=O)Nc2ccccc2)cc1`: the activity change, negative = cytotoxicity was -14% (inactive).

Consider `O=C(COc1ccccc1C(=O)NCc1ccccc1)Nc1ccccc1`, for which the activity change, negative = cytotoxicity is -5.99% (inactive).

Consider `O=C(COc1ccc(C(=O)NCC2CCCO2)cc1)Nc1cccc(C(F)(F)F)c1` (stereo unspecified), for which the activity change, negative = cytotoxicity is 1.08% (inactive).

`NC(=O)C1CCN(C(=O)c2ccc(OCC(=O)Nc3cccc(C(F)(F)F)c3)cc2)CC1`: the activity change, negative = cytotoxicity was 8.43% (inactive).

For `CCCCOc1ccc(NC(=O)COc2ccccc2C(=O)NCCOc2ccccc2)cc1`, the activity change, negative = cytotoxicity is -9.94% (inactive).

With `CN(C)c1ccc(NC(=O)COc2ccccc2C(=O)N2CCOCC2)cc1`, the activity change, negative = cytotoxicity was -1.46% (inactive).

As for `O=C(COc1ccc(C(=O)N2CCC2)cc1)Nc1cccc(C(F)(F)F)c1`, the activity change, negative = cytotoxicity is 2.9% (inactive).

Consider `CN(C(=O)COc1ccccc1C(=O)Nc1ccccc1)c1ccccc1`, for which the activity change, negative = cytotoxicity was -12% (inactive).

The test system of another test is A549 viability, CellTiter-Glo ATP luminescence, 72 h. The test is described as above.
Details: not given
As for `O=C(CSc1c2c(nc3ccc(Cl)cc13)CCCC2)N1CCCCC1`, the AC50 was > 52 µM (inactive).

In the case of `COc1ccc(NC(=O)CSc2c3c(nc4ccc(Cl)cc24)CCCC3)cc1`, the AC50 is > 52 µM (inactive).

`O=C(CSc1c2c(nc3cc(Cl)ccc13)CCCC2)N(Cc1ccco1)C1CCCC1`: the AC50 was > 52 µM (inactive).

Consider `O=C(CSc1c2c(nc3ccc(Cl)cc13)CCCC2)NCc1cccs1`, for which the AC50 is > 52 µM (inactive).

Take `Cc1ccc(CNC(=O)CSc2c3c(nc4ccc(Cl)cc24)CCCC3)cc1`: the AC50 was > 52 µM (inactive).

For the compound `O=C(CSc1c2c(nc3ccc(Cl)cc13)CCCC2)NCCCc1ccccc1`, the AC50 was > 52 µM (inactive).

Consider `CCN1CCCC1CNC(=O)CSc1c2c(nc3ccc(Cl)cc13)CCCC2` (stereo unspecified), for which the AC50 is 16.2 µM.

Turning to `O=C(CSc1c2c(nc3ccc(Cl)cc13)CCCC2)N1CCC(N2CCCCC2)CC1`, the AC50 was 26.6 µM.

`COc1ccc(CNC(=O)CSc2c3c(nc4ccc(Cl)cc24)CCCC3)cc1`: the AC50 was > 52 µM (inactive).

On to `Cc1cccc(CCNC(=O)CSc2c3c(nc4ccc(Cl)cc24)CCCC3)c1`, for which the AC50 was > 52 µM (inactive).

In the case of `O=C(CSc1c2c(nc3ccc(Cl)cc13)CCCC2)Nc1ccccc1`, the AC50 was > 52 µM (inactive).

With `O=C(CSc1c2c(nc3ccc(Cl)cc13)CCCC2)NCCN1CCN(Cc2ccccc2)CC1`, the AC50 was 26.7 µM.

`O=C(CSc1c2c(nc3ccc(Cl)cc13)CCCC2)NC1CC1`: the AC50 is > 52 µM (inactive).

On to `O=C(CSc1c2c(nc3ccc(Cl)cc13)CCCC2)NCc1ccc2c(c1)OCO2`, for which the AC50 is > 52 µM (inactive).

In general, AC50 refers to the concentration at which the activity in the assay is half-maximal.

Source of the values: PubChem BioAssay AID743413 (Broad Institute, 2014).
